The source of these data is publication PMC5218480 (PLoS ONE, 2017).

Structures are written as SMILES.

The assay concerns MV-4-11 cells. Kind of assay: Gene expression microarray analysis (Affymetrix PrimeView) and GSEA. On the set-up: RFU PODN (11730768_x_at) / Fold change /veh PODN (11730768_x_at) / RFU LINC00158 (11744669_a_at) / Fold change /veh LINC00158 (11744669_a_at) / RFU DUSP10 (11751237_a_at) / Fold change /veh DUSP10 (11751237_a_at) / RFU ID3 (11757404_x_at) / Fold change /veh ID3 (11757404_x_at) / RFU PLEKHG5 (11737974_s_at) / Fold change /veh PLEKHG5 (11737974_s_at) / RFU LRRC4B (11730491_at) / Fold change /veh LRRC4B (11730491_at) / RFU GIMAP4 (11747438_a_at) / Fold change /veh GIMAP4 (11747438_a_at) / RFU KRT8 (11758183_x_at) / Fold change /veh KRT8 (11758183_x_at) / RFU CNN1 (11734310_a_at) / Fold change /veh CNN1 (11734310_a_at) / RFU VPS37D (11726825_at) / Fold change /veh VPS37D (11726825_at) / RFU C10orf10 (11716522_x_at) / Fold change /veh C10orf10 (11716522_x_at) / RFU KIR2DL2 /// KIR2DL4 /// KIR2DL5A /// KIR2DL5B /// KIR2DS1 /// KIR2DS2 /// KIR2DS3 /// KIR2DS4 /// KIR3DL3 /// KIR3DL3 /// KIR3DS1 (11738374_at) / Fold change /veh KIR2DL2 /// KIR2DL4 /// KIR2DL5A /// KIR2DL5B /// KIR2DS1 /// KIR2DS2 /// KIR2DS3 /// KIR2DS4 /// KIR3DL3 /// KIR3DL3 /// KIR3DS1 (11738374_at) / RFU C1QL1 (11718748_at) / Fold change /veh C1QL1 (11718748_at) / RFU TMPRSS4 (11747572_a_at) / Fold change /veh TMPRSS4 (11747572_a_at) / RFU HAMP (11756126_x_at) / Fold change /veh HAMP (11756126_x_at) / RFU RNFT2 (11725882_a_at) / Fold change /veh RNFT2 (11725882_a_at) / RFU NR4A2 (11747474_a_at) / Fold change /veh NR4A2 (11747474_a_at) / RFU ABCC12 (11746883_a_at) / Fold change /veh ABCC12 (11746883_a_at) / RFU TMEM136 (11760407_x_at) / Fold change /veh TMEM136 (11760407_x_at) / RFU CLDN22 /// WWC2 (11732394_at) / Fold change /veh CLDN22 /// WWC2 (11732394_at) / RFU HLA-DPB1 (11760878_x_at) / Fold change /veh HLA-DPB1 (11760878_x_at) / RFU SPINT1 (11716480_a_at) / Fold change /veh SPINT1 (11716480_a_at) / RFU GAP43 (11754022_s_at) / Fold change /veh GAP43 (11754022_s_at) / RFU A4GNT (11735810_at) / Fold change /veh A4GNT (11735810_at) / RFU PRB3 (11715151_x_at) / Fold change /veh PRB3 (11715151_x_at) / RFU TUBB4B (11761932_at) / Fold change /veh TUBB4B (11761932_at) / RFU CAPN14 (11732068_a_at) / Fold change /veh CAPN14 (11732068_a_at) / RFU TMCC2 (11721928_a_at) / Fold change /veh TMCC2 (11721928_a_at) / RFU IRGQ (11745062_a_at) / Fold change /veh IRGQ (11745062_a_at) / RFU FAM174B (11720279_a_at) / Fold change /veh FAM174B (11720279_a_at) / RFU TMPRSS4 (11748680_a_at) / Fold change /veh TMPRSS4 (11748680_a_at) / RFU FAM212B (11763350_a_at) / Fold change /veh FAM212B (11763350_a_at) / RFU PLEKHG5 (11743358_a_at) / Fold change /veh PLEKHG5 (11743358_a_at) / RFU ZSCAN30 (11745921_a_at) / Fold change /veh ZSCAN30 (11745921_a_at) / RFU CMKLR1 (11741424_a_at) / Fold change /veh CMKLR1 (11741424_a_at) / RFU LOC101060620 /// MAPK8IP1 (11723275_at) / Fold change /veh LOC101060620 /// MAPK8IP1 (11723275_at) / RFU SPTSSB (11747773_x_at) / Fold change /veh SPTSSB (11747773_x_at) / RFU PRSS12 (11739890_at) / Fold change /veh PRSS12 (11739890_at) / RFU BIN1 (11741810_x_at) / Fold change /veh BIN1 (11741810_x_at) / RFU WNT11 (11732464_a_at) / Fold change /veh WNT11 (11732464_a_at) / RFU C10orf10 (11716521_a_at) / Fold change /veh C10orf10 (11716521_a_at) / RFU C5orf56 (11738089_at) / Fold change /veh C5orf56 (11738089_at) / RFU CYB561 (11721691_x_at) / Fold change /veh CYB561 (11721691_x_at) / RFU ANKRD19P (11752326_a_at) / Fold change /veh ANKRD19P (11752326_a_at) / RFU OR2T12 /// OR2T33 /// OR2T8 (11738714_s_at) / Fold change /veh OR2T12 /// OR2T33 /// OR2T8 (11738714_s_at) / RFU VCAN (11748164_a_at) / Fold change /veh VCAN (11748164_a_at) / RFU JSRP1 (11732532_at) / Fold change /veh JSRP1 (11732532_at) / RFU KRTAP10-11 (11738290_x_at) / Fold change /veh KRTAP10-11 (11738290_x_at) / RFU MYO3A (11730013_a_at) / Fold change /veh MYO3A (11730013_a_at) / RFU EBF3 (11725865_a_at) / Fold change /veh EBF3 (11725865_a_at) / RFU CAMK2N1 (11719241_x_at) / Fold change /veh CAMK2N1 (11719241_x_at) / RFU C5orf56 (11738088_a_at) / Fold change /veh C5orf56 (11738088_a_at) / RFU OLFML3 (11715873_a_at) / Fold change /veh OLFML3 (11715873_a_at) / RFU LOC100653217 /// NTM (11731650_a_at) / Fold change /veh LOC100653217 /// NTM (11731650_a_at) / RFU MAPK11 (11762145_a_at) / Fold change /veh MAPK11 (11762145_a_at) / RFU FIZ1 (11724087_x_at) / Fold change /veh FIZ1 (11724087_x_at) / RFU OASL (11726364_x_at) / Fold change /veh OASL (11726364_x_at) / RFU SOX15 (11748057_x_at) / Fold change /veh SOX15 (11748057_x_at) / RFU CD79A (11719716_a_at) / Fold change /veh CD79A (11719716_a_at) / RFU HIST1H1D (11736915_at) / Fold change /veh HIST1H1D (11736915_at) / RFU CASKIN2 (11723855_a_at) / Fold change /veh CASKIN2 (11723855_a_at) / RFU LOC730098 (11760151_x_at) / Fold change /veh LOC730098 (11760151_x_at) / RFU OR4N2 (11742367_at) / Fold change /veh OR4N2 (11742367_at) / RFU PRRT2 (11749266_a_at) / Fold change /veh PRRT2 (11749266_a_at) / RFU SNX32 (11753110_a_at) / Fold change /veh SNX32 (11753110_a_at) / RFU CDHR5 (11726645_a_at) / Fold change /veh CDHR5 (11726645_a_at) / RFU RCAN1 (11760418_a_at) / Fold change /veh RCAN1 (11760418_a_at) / RFU FAM167A (11723789_a_at) / Fold change /veh FAM167A (11723789_a_at) / RFU FAM26E (11764081_at) / Fold change /veh FAM26E (11764081_at) / RFU ISYNA1 (11749810_s_at) / Fold change /veh ISYNA1 (11749810_s_at) / RFU ACY1 (11761880_at) / Fold change /veh ACY1 (11761880_at) / RFU 11764098_at / Fold change /veh 11764098_at / RFU SAMD14 (11745864_x_at) / Fold change /veh SAMD14 (11745864_x_at) / RFU NPB (11741838_a_at) / Fold change /veh NPB (11741838_a_at) / RFU TMPRSS6 (11731388_a_at) / Fold change /veh TMPRSS6 (11731388_a_at) / RFU KRTAP10-2 (11738614_at) / Fold change /veh KRTAP10-2 (11738614_at) / RFU ARHGAP8 /// PRR5-ARHGAP8 (11727945_x_at) / Fold change /veh ARHGAP8 /// PRR5-ARHGAP8 (11727945_x_at) / RFU KRTAP5-7 /// NADSYN1 (11734609_at) / Fold change /veh KRTAP5-7 /// NADSYN1 (11734609_at) / RFU RASL12 (11751679_a_at) / Fold change /veh RASL12 (11751679_a_at) / RFU CDKN2B (11736163_a_at) / Fold change /veh CDKN2B (11736163_a_at) / RFU PRF1 (11729649_at) / Fold change /veh PRF1 (11729649_at) / RFU, ZNF638 /// ZNF638-IT1 / Fold change vs veh, ZNF638 /// ZNF638-IT1 / RFU, PANK3 / Fold change vs veh, PANK3 / RFU, SH3YL1 / Fold change vs veh, SH3YL1 / RFU, ZEB2 / Fold change vs veh, ZEB2 / RFU, NRIP1 / Fold change vs veh, NRIP1 / RFU, PTTG1IP / Fold change vs veh, PTTG1IP / RFU, CAPN2 / Fold change vs veh, CAPN2 / RFU, MED14 / Fold change vs veh, MED14 / RFU, SNORA58 / Fold change vs veh, SNORA58 / RFU, C1orf63 / Fold change vs veh, C1orf63 / RFU, LRRFIP1 / Fold change vs veh, LRRFIP1 / RFU, NDUFAF7 / Fold change vs veh, NDUFAF7 / RFU, SLC12A2 / Fold change vs veh, SLC12A2 / RFU, IBTK / Fold change vs veh, IBTK / RFU, ESF1 / Fold change vs veh, ESF1 / Fold change vs veh, TMEM50B / RFU, TAOK1 / Fold change vs veh, TAOK1 / RFU, ACBD3 / Fold change vs veh, ACBD3 / RFU, TMA16 / Fold change vs veh, TMA16 / RFU, RWDD3 / Fold change vs veh, RWDD3 / RFU, BCAT1 / Fold change vs veh, BCAT1 / RFU, EDEM3 / Fold change vs veh, EDEM3 / RFU, TMEM33 / Fold change vs veh, TMEM33 / RFU, WDR75 / Fold change vs veh, WDR75 / RFU, AHCTF1 / Fold change vs veh, AHCTF1 / RFU, TFRC / Fold change vs veh, TFRC / RFU, ZDHHC17 / Fold change vs veh, ZDHHC17 / RFU, NOM1 / Fold change vs veh, NOM1 / RFU, ARL8B / Fold change vs veh, ARL8B / RFU, ZBTB11 / Fold change vs veh, ZBTB11 / RFU, TAMM41 / Fold change vs veh, TAMM41 / RFU, KIAA1704 /// LOC100996395 / Fold change vs veh, KIAA1704 /// LOC100996395 / RFU, ING1 / Fold change vs veh, ING1 / RFU, TRMT61B / Fold change vs veh, TRMT61B / RFU, FUBP3 / Fold change vs veh, FUBP3 / RFU, TP53 / Fold change vs veh, TP53 / RFU, TNKS2 / Fold change vs veh, TNKS2 / RFU, ZFP14 / Fold change vs veh, ZFP14 / RFU, ACTR2 / Fold change vs veh, ACTR2 / RFU, PPP3R1 / Fold change vs veh, PPP3R1 / RFU, PIK3R1 / Fold change vs veh, PIK3R1 / RFU, HNRNPA1 / Fold change vs veh, HNRNPA1 / RFU, RNF170 / Fold change vs veh, RNF170 / RFU, ZNF28 / Fold change vs veh, ZNF28 / RFU, RNGTT / Fold change vs veh, RNGTT / RFU, OGT / Fold change vs veh, OGT / RFU, BRD1 / Fold change vs veh, BRD1 / RFU, MARS / Fold change vs veh, MARS / RFU, ZNF655 / Fold change vs veh, ZNF655 / RFU, FAHD1 / Fold change vs veh, FAHD1 / RFU, BDP1 / Fold change vs veh, BDP1 / RFU, LRRCC1 / Fold change vs veh, LRRCC1 / RFU, ARID1A / Fold change vs veh, ARID1A / RFU, ZNF146 / Fold change vs veh, ZNF146 / RFU, ZNF330 / Fold change vs veh, ZNF330 / RFU, GPN3 / Fold change vs veh, GPN3 / RFU, C9orf123 / Fold change vs veh, C9orf123 / RFU, N4BP2L2 / Fold change vs veh, N4BP2L2 / RFU, ARFIP1 / Fold change vs veh, ARFIP1 / RFU, FAM179B / Fold change vs veh, FAM179B / RFU, BCL10 / Fold change vs veh, BCL10 / RFU, UHRF1BP1L / Fold change vs veh, UHRF1BP1L / RFU, BET1 / Fold change vs veh, BET1 / RFU, CNOT2 / Fold change vs veh, CNOT2 / RFU, ZNF268 / Fold change vs veh, ZNF268 / Fold change vs veh, ZNF507 / RFU, DGCR2 / Fold change vs veh, DGCR2 / RFU, WDSUB1 / Fold change vs veh, WDSUB1 / Fold change vs veh, HSP90B1 /// MIR3652 / RFU, ADSS / Fold change vs veh, ADSS / RFU, GK / Fold change vs veh, GK / RFU, ZNF148 / Fold change vs veh, ZNF148 / RFU, TAF9 / Fold change vs veh, TAF9 / RFU, SLC1A5 / Fold change vs veh, SLC1A5 / RFU, SLMO2 / Fold change vs veh, SLMO2 / RFU, ABCC4 / Fold change vs veh, ABCC4 / RFU, LOC101060439 /// RAP1B / Fold change vs veh, LOC101060439 /// RAP1B / RFU, RFX7 / Fold change vs veh, RFX7 / RFU, GTPBP10 / Fold change vs veh, GTPBP10 / RFU, CNEP1R1 / Fold change vs veh, CNEP1R1 / RFU, BIVM-ERCC5 /// ERCC5 / Fold change vs veh, BIVM-ERCC5 /// ERCC5 / RFU, ILF3 / Fold change vs veh, ILF3 / RFU 11762660_at / Fold change /veh 11762660_at / RFU VCAN (11757783_s_at) / Fold change /veh VCAN (11757783_s_at) / RFU DDX43 (11728927_at) / Fold change /veh DDX43 (11728927_at) / RFU KRT8 (11758188_x_at) / Fold change /veh KRT8 (11758188_x_at) / RFU NKD1 (11759106_at) / Fold change /veh NKD1 (11759106_at) / RFU SRD5A1 (11742802_a_at) / Fold change /veh SRD5A1 (11742802_a_at) / RFU TPSAB1 /// TPSB2 (11721975_s_at) / Fold change /veh TPSAB1 /// TPSB2 (11721975_s_at) / RFU GSTM3 (11746129_a_at) / Fold change /veh GSTM3 (11746129_a_at) / RFU IL23R (11737362_x_at) / Fold change /veh IL23R (11737362_x_at) / RFU TMEM51 (11727254_a_at) / Fold change /veh TMEM51 (11727254_a_at) / RFU PIWIL2 (11732686_x_at) / Fold change /veh PIWIL2 (11732686_x_at) / RFU ORM1 (11744905_x_at) / Fold change /veh ORM1 (11744905_x_at) / RFU CCDC152 (11743942_at) / Fold change /veh CCDC152 (11743942_at) / RFU ECM1 (11717891_a_at) / Fold change /veh ECM1 (11717891_a_at) / RFU IL23R (11748794_a_at) / Fold change /veh IL23R (11748794_a_at) / RFU TNFAIP8L3 (11732012_x_at) / Fold change /veh TNFAIP8L3 (11732012_x_at) / RFU MBOAT4 (11741988_at) / Fold change /veh MBOAT4 (11741988_at) / RFU 11764193_at / Fold change /veh 11764193_at / RFU TMEM53 (11763286_at) / Fold change /veh TMEM53 (11763286_at) / RFU MAGEB2 (11727129_at) / Fold change /veh MAGEB2 (11727129_at) / RFU TMEM200A (11744735_a_at) / Fold change /veh TMEM200A (11744735_a_at) / RFU CCDC152 (11751479_a_at) / Fold change /veh CCDC152 (11751479_a_at) / RFU FAM211A (11726209_a_at) / Fold change /veh FAM211A (11726209_a_at) / RFU RGS16 (11746705_a_at) / Fold change /veh RGS16 (11746705_a_at) / RFU VCAN (11755009_s_at) / Fold change /veh VCAN (11755009_s_at) / RFU RHOB (11743442_s_at) / Fold change /veh RHOB (11743442_s_at) / RFU RGS16 (11720943_a_at) / Fold change /veh RGS16 (11720943_a_at) / RFU RGS16 (11720944_at) / Fold change /veh RGS16 (11720944_at) / RFU, VPS4B / Fold change vs veh, VPS4B / RFU, CREB1 / Fold change vs veh, CREB1 / RFU, DNAJC13 / Fold change vs veh, DNAJC13 / RFU, GNAQ / Fold change vs veh, GNAQ / RFU, CDK5R1 / Fold change vs veh, CDK5R1 / RFU, ZRANB3 / Fold change vs veh, ZRANB3 / RFU, CUL4A / Fold change vs veh, CUL4A / RFU, CCNY / Fold change vs veh, CCNY / RFU, UFL1 / Fold change vs veh, UFL1 / RFU, COG3 / Fold change vs veh, COG3 / RFU, DIAPH2 / Fold change vs veh, DIAPH2 / RFU, SKA2 / Fold change vs veh, SKA2 / RFU, AFF3 / Fold change vs veh, AFF3 / RFU, LMF1 / Fold change vs veh, LMF1 / RFU, IPO11 / Fold change vs veh, IPO11 / RFU, DFFB / Fold change vs veh, DFFB / RFU, FOXP1 / Fold change vs veh, FOXP1 / RFU, CARD8 / Fold change vs veh, CARD8 / RFU, STRN3 / Fold change vs veh, STRN3 / RFU, ADK / Fold change vs veh, ADK / RFU, RASSF2 / Fold change vs veh, RASSF2 / RFU, WIPF1 / Fold change vs veh, WIPF1 / RFU, LARP1B / Fold change vs veh, LARP1B / RFU, RASA1 / Fold change vs veh, RASA1 / RFU, RB1 / Fold change vs veh, RB1 / RFU, PPFIA1 / Fold change vs veh, PPFIA1 / RFU, MAT2A / Fold change vs veh, MAT2A / RFU, CCT5 / Fold change vs veh, CCT5 / RFU, WDR92 / Fold change vs veh, WDR92 / RFU, CUX1 / Fold change vs veh, CUX1 / RFU, TTC7A / Fold change vs veh, TTC7A / RFU, TMEM135 / Fold change vs veh, TMEM135 / RFU, DEPTOR / Fold change vs veh, DEPTOR / RFU, CPM / Fold change vs veh, CPM / RFU, DNAJB6 / Fold change vs veh, DNAJB6 / RFU, CACNA2D3 / Fold change vs veh, CACNA2D3 / RFU, DTX4 / Fold change vs veh, DTX4 / RFU, TFCP2 / Fold change vs veh, TFCP2 / RFU, GMCL1 /// GMCL1P1 / Fold change vs veh, GMCL1 /// GMCL1P1 / RFU, AEBP2 / Fold change vs veh, AEBP2 / RFU, SNHG1 /// SNORD22 /// SNORD25 /// SNORD26 /// SNORD27 /// SNORD28 /// SNORD29 /// SNORD31 / Fold change vs veh, SNHG1 /// SNORD22 /// SNORD25 /// SNORD26 /// SNORD27 /// SNORD28 /// SNORD29 /// SNORD31 / Fold change (Aza/veh), C12orf56 (ProbeSet 11735607_a_at) / Fold change (ACY-1035/veh), C12orf56 (ProbeSet 11735607_a_at) / Fold change (Aza/veh), FGFR1OP (ProbeSet 11751329_s_at) / Fold change (ACY-1035/veh), FGFR1OP (ProbeSet 11751329_s_at) / Fold change (Aza/veh), VPS36 (ProbeSet 11739960_a_at) / Fold change (ACY-1035/veh), VPS36 (ProbeSet 11739960_a_at) / RFU SYPL1 (11715823_x_at) / Fold change /veh SYPL1 (11715823_x_at) / RFU IGFBP7 (11715501_s_at) / Fold change /veh IGFBP7 (11715501_s_at) / RFU REEP3 (11722064_at) / Fold change /veh REEP3 (11722064_at) / RFU IGLL1 (11728026_x_at) / Fold change /veh IGLL1 (11728026_x_at): dose or concentration left out as unconfirmed. Type of assay: cell-based, human. The conditions noted are these: ProbeSet 11762504_a_at; LIST D.

As for `Nc1ccc(-c2cccs2)cc1NC(=O)c1ccc2c(c1)cc(C1CC1)n2CCN1CCOCC1` [ACY-1035], the “Fold change vs veh, ZRANB3” value is reported as 0.86.
